According to paper PMC13198257, “An aerosolized dual-action autotaxin inhibitor-PPARγ agonist for the treatment of pulmonary fibrosis” (Cell Reports Medicine, 2026):

System: lung gene expression
Assay: RNA sequencing of lung tissue (BLM/EL244 vs BLM)
Assay type: in vivo, mouse
Conditions: lung tissue, BLM/EL244 vs BLM
Method: RNA quality was assessed using an Agilent TapeStation 4150 with the High Sensitivity […] ScreenTape (Agilent), according to the manufacturer’s protocols. For library preparation, the QuantSeq 3’mRNA-Seq Library Prep Kit (Lexogen) was used according to manufacturer’s instructions. Briefly, 500 ng of RNA from each sample was used for first-strand synthesis, followed by RNA template removal, and second-strand synthesis initiated by random primers. In-line barcodes were introduced at this step, and this was followed by magnetic bead-based purification. The resulting libraries were amplified for 15 cycles and re-purified, with quantity and quality assessed on a Qubit 4 Fluorometer with the Invitrogen Qubit dsDNA HS Assay and an Agilent Tapestation 4150 with the High Sensitivity D1000 assay kit, respectively. The quantified libraries were pooled equimolarly; 50ng of total library mix was used for Adapter Conversion PCR Amplification using the Universal Library Conversion Kit (App-A), Version: V1.0 (MGI Tech Co., Ltd.), according to the manufacturer’s instructions.
The quantity and quality of the purified adapter conversion PCR (AC-PCR) product were evaluated on a Qubit 4 Fluorometer with the Invitrogen Qubit dsDNA HS Assay and on an Agilent Tapestation 4150 with the High Sensitivity D1000 assay kit, respectively. This was followed by DNA denaturation, Single-Strand Circularisation, Enzymatic Digestion, Enzymatic Digestion Product Cleanup and Quality Control steps on 1 pmol of AC-PCR product, according to the Universal Library Conversion Kit (App-A) User Manual (Version: A3).
Finally, 60 fmol of ssCirDNA were used for DNB preparation and sequencing on a DNBSEQ-G400 platform at the BSRC Alexander Fleming Genomics Facility, using a G400 App-A FCS SE100 High-throughput Sequencing Set (MGI Tech Co., Ltd.), according to the manufacturer’s instructions.
Alignment of the FASTQ files was performed against the mouse genome build mm10 using a custom Bash script.[143] Read counting on the 3′ UTRs and differential expression analysis were conducted using the metaseqR2 bioconductor package.[144] Genes corresponding to the following biotypes were excluded: polymorphic_pseudogene, processed_transcript, pseudogene, IG_V_pseudogene, misc_RNA, IG_C_gene, IG_J_gene, IG_D_gene, IG_LV_gene, TR_V_gene, TR_V_pseudogene, TEC, and processed_pseudogene. Gene counts were normalized with DESEQ[145] through metaseqR2. Genes with more than 10 counts in at least 50% of the samples were kept for further processing. For differential expression analysis, the PANDORA algorithm[146] was used to estimate a meta p-value integrating the results from the DESEQ, DESEQ2,[147] edgeR,[148] limma,[149] NBPSeq,[150] and NOISeq[151] algorithms. All additional parameters were set to default values.
Pathway enrichment analysis was performed for the Gene Ontology Biological process (BP) and Molecular Function (MF) terms through GeneCodis 4.[152] The volcano plots, scatterplots, Venn diagrams, and dot plots were generated using the ggplot2 Bioconductor package.

O=C1NC(=O)C(Cc2ccc(OCCC3CCN(C(=O)OCc4cc(Cl)cc(Cl)c4)CC3)cc2)S1 (centres unmarked) [EL244, 3,5-dichlorobenzyl 4-(2-(4-((2,4-dioxothiazolidin-5-yl)methyl)phenoxy)ethyl)piperidine-1-carboxylate]
log2 nFC Hells: -1.30
log2 nFC Il18bp: -0.95
log2 nFC Ildr2: -1.32
log2 nFC Itm2a: -1.25
log2 nFC Kcnn4: -1.27
log2 nFC Kdelr3: -1.25
log2 nFC Kif23: -1.20
log2 nFC Klhdc8a: -1.02
log2 nFC Kntc1: -1.39
log2 nFC Lair1: -0.92
log2 nFC Lat2: -1.10
log2 nFC Lcn2: -0.95
log2 nFC Lgals1: -1.12
log2 nFC Lgmn: -1.09
log2 nFC Lilrb4a: -0.89
log2 nFC Lmnb1: -0.91
log2 nFC Loxl2: -0.91
log2 nFC Lrg1: -0.89
log2 nFC Lum: -1.32
log2 nFC Mad2l1: -0.97
log2 nFC Mafb: -0.92
log2 nFC Mark1: -1.23
log2 nFC Mcm5: -1.33
log2 nFC Mdk: -1.34
log2 nFC Mfap5: -1.12
log2 nFC Mfrp: -0.87
log2 nFC Mgp: -1.03
log2 nFC Mir692-1: -1.18
log2 nFC Mmp14: -1.31
log2 nFC Ms4a6c: -0.91
log2 nFC Ms4a6d: -0.93
log2 nFC Ncapd2: -1.29
log2 nFC Ndnf: -0.87
log2 nFC Nnat: -1.34
log2 nFC Nrcam: -1.26
log2 nFC Nrep: -1.26
log2 nFC P2ry6: -0.93
log2 nFC Paox: -0.92
log2 nFC Pcdh7: -1.03
log2 nFC Pdlim4: -1.24
log2 nFC Plk4: -1.31
log2 nFC Polh: -0.87
log2 nFC Ppic: -1.10
log2 nFC Prdx4: -0.94
log2 nFC Psat1: -0.98
log2 nFC Psrc1: -1.26
log2 nFC Pth1r: -1.40
log2 nFC Racgap1: -1.21
log2 nFC Rcc1: -0.92
log2 nFC Rgs4: -1.23
log2 nFC Rgs5: -1.00
log2 nFC Rhof: -1.02
log2 nFC S100a4: -1.26
log2 nFC S100a14: -1.28
log2 nFC Scn3b: -0.91
log2 nFC Serpina3g: -1.31
log2 nFC Serpina3n: -1.22
log2 nFC Serpine1: -0.98
log2 nFC Serpine2: -0.87
log2 nFC Serpinh1: -0.87
log2 nFC Sertad4: -1.35
log2 nFC Sfn: -1.19
log2 nFC Sh2b2: -1.23
log2 nFC Slamf8: -1.24
log2 nFC Smc2: -0.98
log2 nFC Snai1: -0.97
log2 nFC Spc24: -1.13
log2 nFC St8sia6: -1.04
log2 nFC Tacc3: -1.27
log2 nFC Tiam1: -1.04
log2 nFC Tlr2: -1.04
log2 nFC Tnfaip8l1: -1.08
log2 nFC Tnfrsf11a: -1.12
log2 nFC Tns4: -1.20
log2 nFC Traf4: -1.10
log2 nFC Tubb2b: -1.19
log2 nFC Tyms: -1.02
log2 nFC Ulbp1: -1.06
log2 nFC Vcan: -1.21
log2 nFC Wfdc17: -1.30
nFC 1500009L16Rik: 0.43
nFC 2200002D01Rik: 0.54
nFC AA467197: 0.38
nFC Adamts2: 0.50
nFC Areg: 0.49
nFC Arhgap11a: 0.46
nFC Armcx4: 0.40
nFC Asf1b: 0.45
nFC Bcl2a1b: 0.45
nFC Bcl2a1d: 0.41
nFC Bub1b: 0.44
nFC C1qtnf5: 0.55
nFC C1qtnf6: 0.38
nFC Ccdc8: 0.46
nFC Ccl9: 0.39
nFC Ccl17: 0.52
nFC Cd68: 0.50
nFC Cd72: 0.50
nFC Cd248: 0.42
nFC Cd300c2: 0.54
nFC Cdca2: 0.40
nFC Cenpa: 0.40
nFC Cenpw: 0.40
nFC Cercam: 0.39
nFC Ch25h: 0.53
nFC Cilp: 0.38
nFC Clcn5: 0.53
nFC Clec4a2: 0.42
nFC Clec4n: 0.38
nFC Clec5a: 0.45
nFC Clec11a: 0.50
nFC Clec12a: 0.53
nFC Col1a2: 0.38
nFC Col8a1: 0.44
nFC Col12a1: 0.54
nFC Col15a1: 0.47
nFC Col16a1: 0.53
nFC Cotl1: 0.54
nFC Csf2rb2: 0.50
nFC Cstb: 0.52
nFC Ctsk: 0.51
nFC Ctss: 0.53
nFC Cx3cr1: 0.44
nFC Cyp7b1: 0.38
nFC Dbn1: 0.54
nFC Dclk1: 0.55
nFC Diaph3: 0.46
nFC Dio2: 0.38
nFC Dok2: 0.39
nFC Dut: 0.54
nFC Egr2: 0.54
nFC Epha4: 0.54
nFC F10: 0.46
nFC Fam20c: 0.48
nFC Fbn1: 0.49
nFC Fcgr1: 0.41
nFC Fcgr2b: 0.47
nFC Fcrls: 0.39
nFC Fen1: 0.50
nFC Fgf13: 0.38
nFC Fkbp10: 0.42
nFC Fndc1: 0.46
nFC Fscn1: 0.43
nFC Fst: 0.48
nFC Fstl1: 0.43
nFC Gas2l3: 0.40
nFC Gm13889: 0.55
nFC Gm25380: 0.50
nFC Gm42674: 0.44
nFC Gm49339: 0.52
nFC Hells: 0.41
nFC Il18bp: 0.52
nFC Ildr2: 0.40
nFC Itm2a: 0.42
nFC Kcnn4: 0.41
nFC Kdelr3: 0.42
nFC Kif23: 0.44
nFC Klhdc8a: 0.49
nFC Kntc1: 0.38
nFC Lair1: 0.53
nFC Lat2: 0.47
nFC Lcn2: 0.52
nFC Lgals1: 0.46
nFC Lgmn: 0.47
nFC Lilrb4a: 0.54
nFC Lmnb1: 0.53
nFC Loxl2: 0.53
nFC Lrg1: 0.54
nFC Lum: 0.40
nFC Mad2l1: 0.51
nFC Mafb: 0.53
nFC Mark1: 0.42
nFC Mcm5: 0.40
nFC Mdk: 0.40
nFC Mfap5: 0.46
nFC Mfrp: 0.55
nFC Mgp: 0.49
nFC Mir692-1: 0.44
nFC Mmp14: 0.40
nFC Ms4a6c: 0.53
nFC Ms4a6d: 0.53
nFC Ncapd2: 0.41
nFC Ndnf: 0.55
nFC Nnat: 0.40
nFC Nrcam: 0.42
nFC Nrep: 0.42
nFC P2ry6: 0.52
nFC Paox: 0.53
nFC Pcdh7: 0.49
nFC Pdlim4: 0.42
nFC Plk4: 0.40
nFC Polh: 0.55
nFC Ppic: 0.47
nFC Prdx4: 0.52
nFC Psat1: 0.51
nFC Psrc1: 0.42
nFC Pth1r: 0.38
nFC Racgap1: 0.43
nFC Rcc1: 0.53
nFC Rgs4: 0.42
nFC Rgs5: 0.50
nFC Rhof: 0.49
nFC S100a4: 0.42
nFC S100a14: 0.41
nFC Scn3b: 0.53
nFC Serpina3g: 0.40
nFC Serpina3n: 0.43
nFC Serpine1: 0.51
nFC Serpine2: 0.55
nFC Serpinh1: 0.55
nFC Sertad4: 0.39
nFC Sfn: 0.44
nFC Sh2b2: 0.43
nFC Slamf8: 0.42
nFC Smc2: 0.51
nFC Snai1: 0.51
nFC Spc24: 0.46
nFC St8sia6: 0.49
nFC Tacc3: 0.42
nFC Tiam1: 0.49
nFC Tlr2: 0.48
nFC Tnfaip8l1: 0.47
nFC Tnfrsf11a: 0.46
nFC Tns4: 0.44
nFC Traf4: 0.47
nFC Tubb2b: 0.44
nFC Tyms: 0.49
nFC Ulbp1: 0.48
nFC Vcan: 0.43
nFC Wfdc17: 0.41
